{
  "source": "patent US4748155A",
  "about": "“Pharmacologically active tripeptides and process for their synthesis” (Eniricerche S.p.A., priority 1985, dated 1988)",
  "system": "acetic acid-induced writhings in mice",
  "settings": "mouse, in vivo, ip",
  "method": "The analgesic activity has been tested by means of the writhing test. As the painful agent, an aqueous solution of acetic acid at 3% was used, injected by intraperitoneal way (0.1 ml/10 g), and the number was recorded of animal' writhings during the observation time of 20 minutes.\nTwenty female mice of Albino Swiss strain, weighing 25-28 g, were treated with the compound under test, dissolved in physiologic solution:dimethylsulphoxide (1:1), at the dosage of 0.1 ml/kg/i.p. Other 20 mice, of same strain, sex and weight, were treated with the solvent only. After 40 minutes, the acetic acid was administered to both groups, and the increase of writhings was recorded.",
  "data": [
    {"smiles": "CC(C)C[C@@H](NC(=O)C(Cc1c[nH]c2ccccc12)C(=O)O)NC(=O)[C@@H]1CCC(=O)N1", "note": "(stereo partly drawn) [GLP-g-Leu-m-TRP-OH, N-(pyroglutamyl)-N'-[(R,S)-alpha-carboxy-beta-3-indolyl-propanoyl]-(S)-1,1-diamino-isopentane]", "values": [
      {"measurement": "inhibition of the number of contorsions (writhings)", "value": 25, "unit": "%"}
    ]}
  ]
}
